Laboratory results: ChEMBL document CHEMBL1201862, “PubChem BioAssay data set” (2004)
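Five compound concentrations were applied to cells in 96-well plates for 48 hours; endpoints were derived by simple linear interpolation of the resulting dose-response curve. GI50 = concentration required for 50% inhibition of growth.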 Active and inactive are the calls of the source. No stated cut-off is given here; in the data, active = GI50 up to about 1.1 µM and inactive = higher. Where a SMILES comes first, the peptide text is derived from it.

Columns and labels:
Test in all cases: growth of human tumour cells (NCI), 48 h
ACHN = test system: ACHN
COLO 205 = test system: COLO 205
HL-60 = test system: HL-60
HOP-62 = test system: HOP-62
HT-29 = test system: HT-29
LOX IMVI = test system: LOX IMVI
MDA-MB-231 = test system: MDA-MB-231
NCI-H23 = test system: NCI-H23
NCI-H460 = test system: NCI-H460
OVCAR-5 = test system: OVCAR-5
RPMI-8226 = test system: RPMI-8226
SF-295 = test system: SF-295
SF-539 = test system: SF-539
SK-MEL-5 = test system: SK-MEL-5
SNB-19 = test system: SNB-19
SW-620 = test system: SW-620
TK-10 = test system: TK-10
U-251 = test system: U-251
UACC-257 = test system: UACC-257
HCC 2998 = test system: HCC 2998

Measured: GI50

Cc1c(NC(=O)Nc2c(Cl)cccc2Cl)c(=O)n(-c2ccccc2)n1C
inactive: ACHN > 100 µM | COLO 205 > 100 µM | HL-60 > 100 µM | HOP-62 > 100 µM | HT-29 > 100 µM | LOX IMVI > 100 µM | MDA-MB-231 > 100 µM | NCI-H23 > 100 µM | NCI-H460 > 100 µM | OVCAR-5 > 100 µM | RPMI-8226 > 100 µM | SF-295 > 100 µM | SF-539 > 100 µM | SK-MEL-5 > 100 µM | SNB-19 > 100 µM | SW-620 > 100 µM | TK-10 > 100 µM | U-251 > 100 µM | UACC-257 > 100 µM

O=C1NC(=O)C(c2c[nH]c3ccccc23)=C1c1cnc[nH]1
inactive: ACHN > 100 µM | COLO 205 49.5 µM | HL-60 26.9 µM | HOP-62 > 100 µM | HT-29 66.4 µM | LOX IMVI 59 µM | MDA-MB-231 > 100 µM | NCI-H460 55.3 µM | OVCAR-5 > 100 µM | RPMI-8226 49 µM | SF-295 > 100 µM | SF-539 32.9 µM | SK-MEL-5 22.5 µM | SNB-19 > 100 µM | SW-620 57.3 µM | TK-10 89.5 µM | U-251 > 100 µM | UACC-257 > 100 µM

Cc1cn2c(/C=N/NC(=N)N)c(-c3ccc(Cl)c([N+](=O)[O-])c3)nc2s1
active: COLO 205 0.661 µM | HL-60 0.116 µM | HT-29 0.55 µM | LOX IMVI 0.409 µM | RPMI-8226 0.904 µM | SW-620 0.244 µM | U-251 0.268 µM | UACC-257 0.178 µM
inactive: ACHN 1.76 µM | HOP-62 1.54 µM | MDA-MB-231 1.13 µM | NCI-H23 1.43 µM | NCI-H460 1.42 µM | OVCAR-5 1.17 µM | SF-295 1.3 µM | SF-539 1.73 µM | SK-MEL-5 1.56 µM | TK-10 1.68 µM

Oc1ccccc1/C=N/N1C(=S)N(C23CC4CC(CC(C4)C2)C3)C(=N\c2ccccc2)/C1=N/c1ccccc1
inactive: ACHN 50 µM | COLO 205 94.4 µM | HCC 2998 > 100 µM | HOP-62 > 100 µM | HT-29 29.6 µM | MDA-MB-231 8.04 µM | NCI-H23 > 100 µM | NCI-H460 71.8 µM | OVCAR-5 > 100 µM | RPMI-8226 6.15 µM | SF-295 > 100 µM | SF-539 > 100 µM | SK-MEL-5 23.4 µM | SNB-19 77.4 µM | SW-620 > 100 µM | TK-10 > 100 µM | U-251 76.6 µM | UACC-257 > 100 µM

N=C(N)SCc1nc(-c2ccc(Cl)cc2)no1
inactive: ACHN 13.3 µM | COLO 205 14.6 µM | HL-60 13.8 µM | HOP-62 27.3 µM | HT-29 10.2 µM | LOX IMVI 14.7 µM | MDA-MB-231 12.6 µM | NCI-H23 34.4 µM | NCI-H460 23.8 µM | OVCAR-5 10.3 µM | RPMI-8226 5.05 µM | SF-295 17.9 µM | SF-539 15.8 µM | SK-MEL-5 31.1 µM | SNB-19 38.2 µM | SW-620 12.2 µM | TK-10 20.6 µM | U-251 21.7 µM | UACC-257 30.5 µM

CC1(C)C(C#N)C1C1=C(N2CCOCC2)[C@]2(C)C(OC(=O)c3ccccc3)CC[C@@H]2C1 (some centres undefined)
inactive: ACHN > 100 µM | COLO 205 95.3 µM | HCC 2998 > 100 µM | HOP-62 > 100 µM | HT-29 50.1 µM | MDA-MB-231 > 100 µM | NCI-H23 > 100 µM | NCI-H460 > 100 µM | OVCAR-5 > 100 µM | SF-295 > 100 µM | SF-539 > 100 µM | SK-MEL-5 29.8 µM | SNB-19 > 100 µM | SW-620 > 100 µM | TK-10 > 100 µM | U-251 > 100 µM | UACC-257 > 100 µM

COc1ccccc1C[C@@H]1OC2(C=CC(=O)C=C2)O[C@H]1Cc1ccccc1OC
inactive: ACHN 7.89 µM | COLO 205 8.11 µM | HL-60 7.43 µM | HOP-62 7.4 µM | HT-29 9.02 µM | LOX IMVI 6.14 µM | MDA-MB-231 13.8 µM | NCI-H23 8.75 µM | NCI-H460 23 µM | OVCAR-5 8.43 µM | RPMI-8226 1.71 µM | SF-295 11 µM | SF-539 8.75 µM | SK-MEL-5 8.99 µM | SNB-19 9.95 µM | SW-620 1.79 µM | TK-10 9.06 µM | U-251 10.2 µM | UACC-257 8.11 µM

O=C1CCC2(c3ccc(Cl)cc3)Nc3ncncc3N12 (centres undefined)
active: MDA-MB-231 0.001 µM
inactive: ACHN > 10 µM | HCC 2998 > 10 µM | HT-29 > 10 µM | LOX IMVI > 10 µM | NCI-H23 > 10 µM | NCI-H460 > 10 µM | OVCAR-5 > 10 µM | SF-295 > 10 µM | SF-539 > 10 µM | SNB-19 > 10 µM | SW-620 > 10 µM | TK-10 > 10 µM | U-251 > 10 µM | UACC-257 > 10 µM

CCC(C)C(NC(=O)C1CCCN1C(=O)C(CC(C)C)NC(=O)C(CC(C)C)NC(=O)C(N)CC(C)C)C(=O)NC(C(=O)NCC(=O)NC(CC(N)=O)C(=O)NC(CC(C)C)C(=O)NC(CC(C)C)C(=O)NC(CC(C)C)C(N)=O)C(C)C (centres undefined) (H-LLLPIVGNLLL-NH2; configuration not given here)
inactive: ACHN > 50 µM | COLO 205 > 50 µM | HL-60 > 50 µM | HOP-62 > 50 µM | HT-29 > 50 µM | LOX IMVI > 50 µM | MDA-MB-231 > 50 µM | NCI-H23 > 50 µM | OVCAR-5 > 50 µM | RPMI-8226 > 50 µM | SF-295 > 50 µM | SF-539 > 50 µM | SK-MEL-5 > 50 µM | SNB-19 > 50 µM | SW-620 > 50 µM | TK-10 > 50 µM | U-251 > 50 µM | UACC-257 > 50 µM

O=C1/C(=C/c2ccc(Cl)cc2)Oc2cc(O)ccc21 [6-HYDROXY-4'-CHLORO AURONE]
inactive: ACHN 28.1 µM | COLO 205 > 100 µM | HCC 2998 39.3 µM | HL-60 18.1 µM | HOP-62 32.7 µM | MDA-MB-231 34.6 µM | NCI-H23 36.2 µM | NCI-H460 25.1 µM | RPMI-8226 30.6 µM | SF-295 38.4 µM | SF-539 21.9 µM | SK-MEL-5 23.4 µM | SNB-19 26.6 µM | SW-620 44.6 µM | TK-10 30.5 µM | U-251 26.5 µM | UACC-257 31.2 µM

CC1(C)CC(O)CC(C)(C)N1O [TEMPOL HYDROXYLAMINE]
inactive: ACHN > 100 µM | COLO 205 > 100 µM | HCC 2998 > 100 µM | HOP-62 > 100 µM | HT-29 > 100 µM | MDA-MB-231 > 100 µM | NCI-H460 > 100 µM | OVCAR-5 > 100 µM | RPMI-8226 > 100 µM | SF-295 > 100 µM | SF-539 > 100 µM | SK-MEL-5 > 100 µM | SNB-19 > 100 µM | SW-620 > 100 µM | TK-10 > 100 µM | UACC-257 > 100 µM
